Measurements as given in US11926619B2, “Certain pladienolide compounds and methods of use” (EISAI R&D MANAGEMENT CO., LTD., priority 2018, dated 2024).

Columns and labels:
[1] = target: T1, SF3b complexes (Homo sapiens, UniProt O75533+Q7RTV0); experiment: Scintillation proximity assay (SPA) with [3H]-labelled pladienolide probe; assay type: binding; details: wt SF3B1, read-out: SPA (wt SF3B1 cells) IC50
T1 construct: endogenous in cells
Method: Batch immobilization of anti-SF3B1 antibody (MBL) to anti-mouse PVT SPA scintillation beads (PerkinElmer) was prepared as follows: for every 2.5 mg of nuclear extracts, 5 μg anti-SF3B1 antibody and 1.5 mg of beads were mixed in 150 μl PBS. The antibody-bead mixture was incubated for 30 min at RT and centrifuged at 18,000 g for 5 min. 150 μl PBS was used to resuspend every 1.5 mg antibody-bead mixture. The beads were suspended and added to the prepared nuclear extracts. The slurry was incubated for 2 h at 4° C. with gentle mixing. The beads were then collected by centrifuging at 18,000 g for 5 min, and washed twice with PBS+0.1% Triton X-100. After a final centrifugation step, every 1.5 mg of beads was suspended with 150 μl of PBS. The SF3b complexes were tested for [^3H]-labelled pladienolide probe binding ([^3H]-PB), synthesized as previously described (Kotake et al., 2007). 100 μL binding reactions were prepared with 50 μl bead slurry and by adding varying concentrations of PB or PB—OH, and after 30 min pre-incubation, 2.5 nM [^3H]—PB was added. The mixture was incubated for 30 min, and luminescence signals were read using a MicroBeta2 Plate Counter (PerkinElmer). Prism 6 (Graphpad) was used for non-linear regression curve fitting of the data.

[2] = tested on: Panc 05.04 cells (pancreatic cancer cells; Q699H and K700E mutations in SF3B1); experiment: Cell viability assay (CellTiter-Glo, 72 hr), Panc 05.04 cells; assay type: cell-based; details: Panc 05.04 cells (mutant SF3B1); for Emax: maximum achievable response in tested dose range, negative value = cellular lethality, read-out: Panc 05.04 (mt SF3B1 cells) Emax (%); for GI50: read-out: Panc 05.04 (mt SF3B1 cells), GI50
Method: (§1) Cells (WiDr and Panc05.04 obtained from ATCC) were seeded in 96-well plates, with 2000 cells/100 μL/well, and incubated overnight. Spent media was removed, and fresh media containing 9 different concentrations of compound (100 μL/well) were added, with DMSO concentration from compound stock solution adjusted to be 0.1%. Each compound treatment was done in duplicate or triplicate at each concentration.
(§2) Another plate with cells seeded was dedicated as a time zero (Tz) plate, to which was added 0.1% DMSO in media (100 μL/well) followed by CellTiter-Glo® reagent (Promega Corporation, Madison, Wisconsin) (50 μL/well) for ATP measurement as a surrogate of cell viability. Average value from measurement of multiple wells of this plate is used as Tz. Compound-treated plates were incubated for 72 hr at 37° C. Then, CellTiter-Glo® reagent (50 μL/well) was added and ATP was measured. Average value from measurement of the duplicate or triplicate compound-treated wells is used as Ti, and seeded plates with medium having 0.1% DMSO without compound is used as control growth (C).
(§3) Percentage growth inhibition/Percentage viability was calculated as:
(§4) [(Ti−Tz)/(C−Tz)]×100 for concentrations for which Ti>/=Tz
(§5) [(Ti−Tz)/Tz]×100 for concentrations for which Ti<Tz.
(§6) *time zero (Tz), control growth (C), and test growth in the presence of compound (Ti) Percentage growth inhibition/Percentage viability are plotted versus compound concentration to determine Emax.
(§7) Emax refers to the maximum achievable response to a compound in a tested dose range, with a negative value indicating cellular lethality. A larger negative Emax value indicates greater cellular lethality for a particular compound.

[3] = tested on: WiDr cells (colon cancer cells; wildtype SF3B1); experiment: Cell viability assay (CellTiter-Glo, 72 hr), WiDr cells; assay type: cell-based; details: Homo sapiens; WiDr cells (wildtype SF3B1); read-out: WiDr GI50
Method: as §1, §2, §3, §4, §5, §6
Emax refers to the maximum achievable response to a compound in a tested dose range, with a negative value indicating cellular lethality. A larger negative Emax value indicates greater cellular lethality for a particular compound. […]

[4] = tested on: WiDr-R cells (colon cancer cells; chemically-induced SF3B1 R1074H mutant); experiment: Cell viability assay (CellTiter-Glo, 72 hr), resistant WiDr-R cells (counter-screen); assay type: cell-based; details: WiDr-R cells (SF3B1 R1074H mutation, resistant); read-out: WiDr-R GI50
Method: as §1, §2, §3, §4, §5, §6, §7
The counter-screening of compounds in this viability assay with a “resistant” WiDr-R cell line may indicate whether these compounds have off-target effect(s).

SMILES | IC50 [1] [nM] | Emax [2] [%] | GI50 [2] [nM] | GI50 [3] [nM] | GI50 [4] [nM]
CC[C@H](O)[C@@H](C)[C@H]1O[C@@H]1C[C@H](C)/C=C/C=C(\C)[C@H]1OC(=O)C[C@H](O)CC[C@@](C)(OC)[C@@H](OC(=O)N2CCNCC2)/C=C/[C@@H]1C | 0.99 | – | – | – | –
C/C(=C\C=C\[C@@H](C)c1ccccn1)[C@H]1OC(=O)C[C@H](O)CC[C@@](C)(O)[C@@H](OC(=O)N2CCC(N3CC4CCC(C3)C4(F)F)CC2)/C=C/[C@@H]1C | 47.3 | -90.3 | 76.1 | – | –
CC[C@H](O)[C@@H](C)[C@H]1O[C@@H]1C[C@@](C)(O)/C=C/C=C(\C)[C@H]1OC(=O)C[C@H](O)CC[C@@](C)(OC(C)=O)[C@@H](OC(=O)N2CCNCC2)/C=C/[C@@H]1C | 8.78 | -73.2 | 26.8 | – | –
CC[C@H](O)[C@@H](C)[C@H]1O[C@@H]1C[C@@](C)(O)/C=C/C=C(\C)[C@H]1OC(=O)C[C@H](O)CC[C@@](C)(OC(C)=O)[C@@H](OC(=O)N2C[C@@H]3C[C@H]2CN3)/C=C/[C@@H]1C | 16 | – | – | – | –
CC[C@H](O)[C@@H](C)[C@H]1O[C@@H]1C[C@@](C)(O)/C=C/C=C(\C)[C@H]1OC(=O)C[C@H](O)CC[C@@](C)(OC)[C@@H](OC(=O)N2CCN(CCCC(=O)O)CC2)/C=C/[C@@H]1C | 14.6 | – | – | – | –
CC[C@H](O)[C@@H](C)[C@H]1O[C@@H]1C[C@@](C)(O)/C=C/C=C(\C)[C@H]1OC(=O)C[C@H](O)CC[C@@](C)(OC)[C@@H](OC(=O)N2CCNC(CCC(=O)O)C2)/C=C/[C@@H]1C (stereo partly drawn) | 29.2 | – | – | – | –
CC[C@H](O)[C@@H](C)[C@H]1O[C@@H]1C[C@@](C)(O)/C=C/C=C(\C)[C@H]1OC(=O)C[C@H](O)CC[C@@](C)(OC)[C@@H](OC(=O)N(C)CCNC)/C=C/[C@@H]1C | 18.3 | – | – | – | –
CC(=O)O[C@H]1/C=C/[C@H](C)[C@@H](/C(C)=C/C=C/C(c2ccccn2)C(C)C)OC(=O)C[C@H](O)CC[C@@]1(C)O (stereo partly drawn) | 20.9 | – | – | – | –
C/C(=C\C=C\C(C)c1ccnc(N2CCCC2)n1)[C@H]1OC(=O)C[C@H](O)CC[C@@](C)(O)[C@@H](OC(=O)N2CCN(C3CCCCCC3)CC2)/C=C/[C@@H]1C (stereo partly drawn) | – | -96.6 | 147 | 23 | 4310
C/C(=C\C=C\[C@@H](C)COC(=O)N1CCC[C@H]1C)[C@H]1OC(=O)C[C@H](O)CC[C@@](C)(O)[C@@H](OC(=O)N2CCN(C3CCCCCC3)CC2)/C=C/[C@@H]1C | – | – | 2.52 | 1.42 | 21.8
CC[C@H](O)[C@@H](C)[C@H]1O[C@@H]1C[C@@](C)(O)/C=C/C=C(\C)[C@H]1OC(=O)C[C@H](O)CC[C@@](C)(OC(C)=O)[C@@H](OC(=O)N2CCN(CCO)CC2)/C=C/[C@@H]1C | 24.3 | – | – | – | –
C/C(=C\C=C\C(C)c1ccnc(N2CC[C@@H](O)C2)n1)[C@H]1OC(=O)CCCCC[C@@H](OC(=O)N2CCN(C3CCCCCC3)CC2)/C=C/[C@@H]1C (stereo partly drawn) | – | -94.8 | 475 | 455 | > 10000
C/C(=C\C=C\[C@@H](C)CNC(=O)C1CCCC1)[C@H]1OC(=O)C[C@H](O)CC[C@@](C)(O)[C@@H](OC(=O)N2CCN(C)CC2)/C=C/[C@@H]1C | – | -57 | 137 | 263 | > 1000
CC(=O)O[C@H]1/C=C/[C@H](C)[C@@H](/C(C)=C/C=C/[C@](C)(O)CCc2ccccc2)OC(=O)C[C@H](O)CC[C@@]1(C)O | – | -55.4 | 314 | 167 | > 10000
C/C(=C\C=C\[C@@H](C)COC(=O)N1CCC[C@H]1CF)[C@H]1OC(=O)C[C@H](O)CC[C@@](C)(O)[C@@H](OC(=O)N2CCN(C)CC2)/C=C/[C@@H]1C | – | -82.1 | 2.25 | 1.7 | > 1000
C/C(=C\C=C\C(C)c1ccnc(N(C)C)n1)[C@H]1OC(=O)CCCCC[C@@H](OC(=O)N2CCN(C3CCCCCC3)CC2)/C=C/[C@@H]1C (stereo partly drawn) | – | 52 | > 10000 | 4280 | > 10000
C/C(=C\C=C\[C@@H](C)c1ccccn1)[C@H]1OC(=O)C[C@H](O)CC[C@@](C)(O)[C@@H](OC(=O)N2CCN(C3CCCCCC3)C(C)C2)/C=C/[C@@H]1C (stereo partly drawn) | – | -60.4 | 126 | 133 | > 1000
C/C(=C\C=C\[C@@H](C)COC(=O)N1CC[C@@H](O)C1)[C@H]1OC(=O)C[C@H](O)CC[C@@](C)(O)[C@@H](OC(=O)N2CCN(C)CC2)/C=C/[C@@H]1C | – | -94.8 | 88.1 | 89.9 | > 1000
CC[C@H](O)[C@@H](C)[C@H]1O[C@@H]1C[C@H](C)/C=C/C=C(\C)[C@H]1OC(=O)C[C@H](O)CC[C@@](C)(OC)[C@@H](OC(=O)N2CCN(C)CC2)/C=C/[C@@H]1C | 1.52 | – | – | – | –
CC[C@H](O)[C@@H](C)C(=O)OC[C@H](C)/C=C/C=C(\C)[C@H]1OC(=O)C[C@H](O)CC[C@@](C)(O)[C@@H](OC(C)=O)/C=C/[C@@H]1C | – | -90.5 | 31.1 | 42.8 | > 10000
C/C(=C\C=C\[C@@H](C)COC(=O)N1CCCC1C(C)O)[C@H]1OC(=O)C[C@H](O)CC[C@@](C)(O)[C@@H](OC(=O)N2CCN(C)CC2)/C=C/[C@@H]1C (stereo partly drawn) | – | -85.4 | 10.1 | 14.7 | > 1000
C/C(=C\C=C\[C@@H](C)c1ccccn1)[C@H]1OC(=O)C[C@H](O)CC[C@@](C)(O)[C@@H](OC(=O)N2CC3CCC(C2)N3C2CCCCCC2)/C=C/[C@@H]1C | – | -95.7 | 65 | 52 | > 1000
CC(=O)O[C@H]1/C=C/[C@H](C)[C@@H](/C(C)=C/C=C/C(C)CCc2ccccn2)OC(=O)C[C@H](O)CC[C@@]1(C)O (stereo partly drawn) | – | 0.954 | 972 | 593 | > 10000
C/C(=C\C=C\[C@@H](C)COC(=O)N1CCCC1)[C@H]1OC(=O)C[C@H](OC(=O)N2CCCC2)CC[C@@](C)(O)[C@@H](OC(=O)N2CCN(C3CCCCCC3)CC2)/C=C/[C@@H]1C | – | – | 80.1 | 77.3 | > 1000
C/C(=C\C=C\[C@@H](C)COC(=O)N1CC[C@@H](F)C1)[C@H]1OC(=O)C[C@H](O)CC[C@@](C)(O)[C@@H](OC(=O)N2CCN(C3CCCCCC3)CC2)/C=C/[C@@H]1C | – | -92.2 | 22.5 | 7.64 | > 1000
CC(=O)O[C@H]1/C=C/[C@H](C)[C@@H](/C(C)=C/C=C/[C@@H](C)COC(=O)N2CCOCC2)OC(=O)C[C@H](O)CC[C@@]1(C)O | – | – | 15.4 | 91.3 | > 10000
CC(=O)O[C@H]1/C=C/[C@H](C)[C@@H](/C(C)=C/C=C/[C@@H](C)c2ccccn2)OC(=O)CCCCC1 | – | – | > 10000 | > 10000 | > 10000
CC(=O)O[C@H]1/C=C/[C@H](C)[C@@H](/C(C)=C/C=C/C(C)c2ccccc2)OC(=O)C[C@H](O)CC[C@@]1(C)O (stereo partly drawn) | – | 12.3 | 932 | 382 | > 10000
C/C(=C\C=C\[C@@H](C)COC(=O)N1CCc2ccccc21)[C@H]1OC(=O)C[C@H](O)CC[C@@](C)(O)[C@@H](OC(=O)N2CCN(C)CC2)/C=C/[C@@H]1C | – | -97 | 16.7 | 19.8 | > 1000
C/C(=C\C=C\[C@@H](C)COC(=O)N1CCCC1(C)C)[C@H]1OC(=O)C[C@H](O)CC[C@@](C)(O)[C@@H](OC(=O)N2CCN(C3CCCCCC3)CC2)/C=C/[C@@H]1C | – | -93 | 10.4 | 28.9 | > 1000
